Source: ChEMBL document CHEMBL4507275, “Data for DCP probe BI-2545” (2021)

How the values were obtained:
[1] = test system: Tyrosine-protein kinase ABL1 (Homo sapiens), P00519 [F317L]; conditions: Compound concentration 1000.0 nM
[2] = test system: Receptor-type tyrosine-protein kinase FLT3 (Homo sapiens), P36888 [D835H]; conditions: Compound concentration 1000.0 nM
[3] = target: Calcium/calmodulin-dependent protein kinase kinase 1 (Homo sapiens) (UniProt Q8N5S9); conditions: Compound concentration 1000.0 nM
Calcium/calmodulin-dependent protein kinase kinase 1 (Homo sapiens), sequence (Q8N5S9 whole entry, looked up): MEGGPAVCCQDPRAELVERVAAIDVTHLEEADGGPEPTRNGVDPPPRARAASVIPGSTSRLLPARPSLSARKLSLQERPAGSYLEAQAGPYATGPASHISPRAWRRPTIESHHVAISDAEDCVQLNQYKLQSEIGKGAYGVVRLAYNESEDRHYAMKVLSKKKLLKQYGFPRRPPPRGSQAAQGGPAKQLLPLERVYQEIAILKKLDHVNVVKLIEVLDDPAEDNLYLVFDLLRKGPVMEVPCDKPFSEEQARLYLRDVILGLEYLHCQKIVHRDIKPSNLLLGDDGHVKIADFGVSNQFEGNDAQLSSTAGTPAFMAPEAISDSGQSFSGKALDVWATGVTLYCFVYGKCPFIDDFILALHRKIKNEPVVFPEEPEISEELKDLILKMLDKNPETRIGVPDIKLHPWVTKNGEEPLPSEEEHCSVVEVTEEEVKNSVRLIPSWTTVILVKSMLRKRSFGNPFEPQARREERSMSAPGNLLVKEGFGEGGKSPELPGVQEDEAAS

[4] = target: Tyrosine-protein kinase Fer (Homo sapiens) (UniProt P16591); conditions: Compound concentration 1000.0 nM
[5] = target: Mitogen-activated protein kinase 8 (Homo sapiens) (UniProt P45983); conditions: Compound concentration 1000.0 nM
[6] = target: Epidermal growth factor receptor (Homo sapiens) (UniProt P00533); conditions: Compound concentration 1000.0 nM
[7] = target: 5-hydroxytryptamine receptor 2C (Homo sapiens) (UniProt P28335); conditions: Compound concentration 10.0 uM
[8] = target: Glycogen synthase kinase-3 alpha (Homo sapiens) (UniProt P49840); conditions: Compound concentration 1000.0 nM
[9] = target: Serine/threonine-protein kinase MARK2 (Homo sapiens) (UniProt Q7KZI7); conditions: Compound concentration 1000.0 nM
[10] = target: Tyrosine-protein kinase CSK (Homo sapiens) (UniProt P41240); conditions: Compound concentration 1000.0 nM
[11] = target: Ankyrin repeat and protein kinase domain-containing protein 1 (Homo sapiens) (UniProt Q8NFD2); conditions: Compound concentration 1000.0 nM
[12] = target: Dual specificity mitogen-activated protein kinase kinase 5 (Homo sapiens) (UniProt Q13163); conditions: Compound concentration 1000.0 nM
[13] = target: Serine/threonine-protein kinase MRCK alpha (Homo sapiens) (UniProt Q5VT25); conditions: Compound concentration 1000.0 nM
[14] = target: Serine/threonine-protein kinase RIO2 (Homo sapiens) (UniProt Q9BVS4); conditions: Compound concentration 1000.0 nM
[15] = test system: Epidermal growth factor receptor (Homo sapiens), P00533 [UNDEFINED MUTATION]; conditions: Compound concentration 1000.0 nM
[16] = target: Ephrin type-A receptor 2 (Homo sapiens) (UniProt P29317); conditions: Compound concentration 1000.0 nM
Ephrin type-A receptor 2 (Homo sapiens), sequence (P29317 whole entry): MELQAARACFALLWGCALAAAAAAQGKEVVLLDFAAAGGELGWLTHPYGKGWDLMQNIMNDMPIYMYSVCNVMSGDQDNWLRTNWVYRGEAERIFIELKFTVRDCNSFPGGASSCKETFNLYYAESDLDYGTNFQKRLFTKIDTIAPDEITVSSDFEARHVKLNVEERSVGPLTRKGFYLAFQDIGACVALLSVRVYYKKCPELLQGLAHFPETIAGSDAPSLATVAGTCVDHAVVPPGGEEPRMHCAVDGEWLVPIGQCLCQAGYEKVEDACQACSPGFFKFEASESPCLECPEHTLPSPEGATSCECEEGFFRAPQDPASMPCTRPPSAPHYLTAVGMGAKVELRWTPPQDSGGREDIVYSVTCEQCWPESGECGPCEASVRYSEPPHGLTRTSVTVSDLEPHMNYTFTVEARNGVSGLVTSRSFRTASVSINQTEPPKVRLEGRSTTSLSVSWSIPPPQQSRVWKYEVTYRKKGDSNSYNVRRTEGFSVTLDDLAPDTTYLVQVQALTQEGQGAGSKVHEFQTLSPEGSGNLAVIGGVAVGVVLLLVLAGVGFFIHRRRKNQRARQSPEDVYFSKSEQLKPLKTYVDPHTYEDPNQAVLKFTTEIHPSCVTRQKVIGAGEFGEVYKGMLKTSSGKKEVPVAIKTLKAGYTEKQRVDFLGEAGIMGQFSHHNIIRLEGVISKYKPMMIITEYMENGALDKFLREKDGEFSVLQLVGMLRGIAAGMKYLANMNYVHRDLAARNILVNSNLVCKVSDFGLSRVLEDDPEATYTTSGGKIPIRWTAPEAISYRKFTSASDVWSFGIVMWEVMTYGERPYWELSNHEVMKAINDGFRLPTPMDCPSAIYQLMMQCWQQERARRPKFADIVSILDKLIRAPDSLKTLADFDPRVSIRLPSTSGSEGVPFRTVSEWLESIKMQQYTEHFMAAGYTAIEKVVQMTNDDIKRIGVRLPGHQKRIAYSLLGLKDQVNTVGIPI

[17] = target: Serine/threonine-protein kinase 36 (Homo sapiens) (UniProt Q9NRP7); conditions: Compound concentration 1000.0 nM
Serine/threonine-protein kinase 36 (Homo sapiens), sequence (Q9NRP7 whole entry): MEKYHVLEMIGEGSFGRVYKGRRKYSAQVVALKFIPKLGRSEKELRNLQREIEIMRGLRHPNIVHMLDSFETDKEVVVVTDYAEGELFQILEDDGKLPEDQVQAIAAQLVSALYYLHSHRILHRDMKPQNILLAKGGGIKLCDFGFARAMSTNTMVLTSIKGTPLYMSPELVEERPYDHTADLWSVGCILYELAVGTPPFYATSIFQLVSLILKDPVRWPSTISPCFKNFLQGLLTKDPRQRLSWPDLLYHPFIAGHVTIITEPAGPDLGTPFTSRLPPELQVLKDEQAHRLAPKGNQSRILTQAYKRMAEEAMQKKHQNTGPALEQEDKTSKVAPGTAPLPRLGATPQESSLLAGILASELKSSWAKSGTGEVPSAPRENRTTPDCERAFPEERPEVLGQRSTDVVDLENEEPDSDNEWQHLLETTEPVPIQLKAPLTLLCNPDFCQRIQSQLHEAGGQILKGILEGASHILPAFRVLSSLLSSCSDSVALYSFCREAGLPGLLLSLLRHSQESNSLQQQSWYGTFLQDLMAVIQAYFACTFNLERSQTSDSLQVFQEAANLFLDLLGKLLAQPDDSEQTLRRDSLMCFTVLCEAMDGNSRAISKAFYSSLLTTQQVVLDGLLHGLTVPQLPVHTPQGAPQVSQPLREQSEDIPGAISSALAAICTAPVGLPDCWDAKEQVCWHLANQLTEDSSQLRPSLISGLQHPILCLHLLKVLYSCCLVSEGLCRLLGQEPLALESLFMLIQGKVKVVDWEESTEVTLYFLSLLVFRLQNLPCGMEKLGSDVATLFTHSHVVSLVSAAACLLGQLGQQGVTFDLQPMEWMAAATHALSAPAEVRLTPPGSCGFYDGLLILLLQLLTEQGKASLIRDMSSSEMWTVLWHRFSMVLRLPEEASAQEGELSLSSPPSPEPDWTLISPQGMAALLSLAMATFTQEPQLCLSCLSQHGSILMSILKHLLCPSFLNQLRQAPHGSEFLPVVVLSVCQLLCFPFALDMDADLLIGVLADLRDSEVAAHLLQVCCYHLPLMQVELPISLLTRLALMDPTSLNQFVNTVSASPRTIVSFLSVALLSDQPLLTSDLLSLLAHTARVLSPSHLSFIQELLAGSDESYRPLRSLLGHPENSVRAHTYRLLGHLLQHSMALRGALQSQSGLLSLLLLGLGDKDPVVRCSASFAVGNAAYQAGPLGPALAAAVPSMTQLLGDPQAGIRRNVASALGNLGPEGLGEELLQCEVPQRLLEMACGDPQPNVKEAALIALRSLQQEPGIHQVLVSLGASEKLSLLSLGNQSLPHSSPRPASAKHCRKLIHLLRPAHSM

[18] = target: Serine/threonine-protein kinase 16 (Homo sapiens) (UniProt O75716); conditions: Compound concentration 1000.0 nM
Serine/threonine-protein kinase 16 (Homo sapiens), sequence (O75716 whole entry): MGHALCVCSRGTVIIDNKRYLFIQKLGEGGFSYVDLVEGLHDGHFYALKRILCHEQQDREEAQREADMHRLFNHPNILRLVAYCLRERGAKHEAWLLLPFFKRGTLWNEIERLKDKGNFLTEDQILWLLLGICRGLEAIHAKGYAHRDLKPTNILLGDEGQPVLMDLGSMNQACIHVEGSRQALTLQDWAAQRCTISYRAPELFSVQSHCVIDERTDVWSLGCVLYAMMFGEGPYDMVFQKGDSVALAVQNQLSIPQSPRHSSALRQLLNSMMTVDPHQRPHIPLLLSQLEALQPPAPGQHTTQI

[19] = target: cGMP-dependent protein kinase 1 (Homo sapiens) (UniProt Q13976); conditions: Compound concentration 1000.0 nM
[20] = test system: Tyrosine-protein kinase ABL1 (Homo sapiens), P00519 [F317I]; conditions: Compound concentration 1000.0 nM
Tyrosine-protein kinase ABL1 (Homo sapiens), P00519 [F317I], sequence (P00519 whole entry F317I): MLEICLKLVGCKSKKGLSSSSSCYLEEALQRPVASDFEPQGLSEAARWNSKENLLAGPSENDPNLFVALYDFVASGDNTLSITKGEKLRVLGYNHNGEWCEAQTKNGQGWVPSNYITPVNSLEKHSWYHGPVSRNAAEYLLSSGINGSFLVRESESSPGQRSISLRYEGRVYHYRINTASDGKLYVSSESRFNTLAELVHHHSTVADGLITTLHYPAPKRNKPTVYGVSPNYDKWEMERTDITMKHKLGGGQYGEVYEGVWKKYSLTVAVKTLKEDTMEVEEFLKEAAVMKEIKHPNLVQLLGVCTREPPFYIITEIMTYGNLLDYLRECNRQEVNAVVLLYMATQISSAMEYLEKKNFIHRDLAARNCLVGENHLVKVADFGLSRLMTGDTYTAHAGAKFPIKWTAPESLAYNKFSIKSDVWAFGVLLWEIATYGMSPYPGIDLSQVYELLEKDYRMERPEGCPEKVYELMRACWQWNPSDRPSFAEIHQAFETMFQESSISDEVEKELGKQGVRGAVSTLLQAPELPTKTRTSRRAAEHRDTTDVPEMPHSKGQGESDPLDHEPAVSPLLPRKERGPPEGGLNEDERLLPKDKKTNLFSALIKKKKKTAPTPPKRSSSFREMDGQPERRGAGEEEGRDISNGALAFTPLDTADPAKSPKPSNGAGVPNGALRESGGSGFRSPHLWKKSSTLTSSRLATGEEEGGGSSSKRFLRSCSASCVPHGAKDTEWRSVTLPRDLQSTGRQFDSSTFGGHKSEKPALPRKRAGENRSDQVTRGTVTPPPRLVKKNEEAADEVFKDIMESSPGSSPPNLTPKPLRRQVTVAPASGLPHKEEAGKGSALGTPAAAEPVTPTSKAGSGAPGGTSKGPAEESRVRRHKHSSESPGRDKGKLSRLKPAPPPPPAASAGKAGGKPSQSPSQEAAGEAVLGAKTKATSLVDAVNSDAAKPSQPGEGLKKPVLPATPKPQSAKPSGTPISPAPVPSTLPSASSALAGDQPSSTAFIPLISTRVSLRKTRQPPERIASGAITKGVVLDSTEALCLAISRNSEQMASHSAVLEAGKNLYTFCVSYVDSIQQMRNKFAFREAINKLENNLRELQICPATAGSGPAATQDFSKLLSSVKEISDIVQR

[21] = target: Dual serine/threonine and tyrosine protein kinase (Homo sapiens) (UniProt Q6XUX3); conditions: Compound concentration 1000.0 nM
[22] = target: Calcium/calmodulin-dependent protein kinase kinase 2 (Homo sapiens) (UniProt Q96RR4); conditions: Compound concentration 1000.0 nM
[23] = target: Mast/stem cell growth factor receptor Kit (Homo sapiens) (UniProt P10721); conditions: Compound concentration 1000.0 nM
[24] = target: Tyrosine-protein kinase Fyn (Homo sapiens) (UniProt P06241); conditions: Compound concentration 1000.0 nM
[25] = target: Misshapen-like kinase 1 (Homo sapiens) (UniProt Q8N4C8); conditions: Compound concentration 1000.0 nM
[26] = target: Maternal embryonic leucine zipper kinase (Homo sapiens) (UniProt Q14680); conditions: Compound concentration 1000.0 nM
[27] = target: Serine/threonine-protein kinase tousled-like 1 (Homo sapiens) (UniProt Q9UKI8); conditions: Compound concentration 1000.0 nM
Serine/threonine-protein kinase tousled-like 1 (Homo sapiens), sequence (Q9UKI8 whole entry): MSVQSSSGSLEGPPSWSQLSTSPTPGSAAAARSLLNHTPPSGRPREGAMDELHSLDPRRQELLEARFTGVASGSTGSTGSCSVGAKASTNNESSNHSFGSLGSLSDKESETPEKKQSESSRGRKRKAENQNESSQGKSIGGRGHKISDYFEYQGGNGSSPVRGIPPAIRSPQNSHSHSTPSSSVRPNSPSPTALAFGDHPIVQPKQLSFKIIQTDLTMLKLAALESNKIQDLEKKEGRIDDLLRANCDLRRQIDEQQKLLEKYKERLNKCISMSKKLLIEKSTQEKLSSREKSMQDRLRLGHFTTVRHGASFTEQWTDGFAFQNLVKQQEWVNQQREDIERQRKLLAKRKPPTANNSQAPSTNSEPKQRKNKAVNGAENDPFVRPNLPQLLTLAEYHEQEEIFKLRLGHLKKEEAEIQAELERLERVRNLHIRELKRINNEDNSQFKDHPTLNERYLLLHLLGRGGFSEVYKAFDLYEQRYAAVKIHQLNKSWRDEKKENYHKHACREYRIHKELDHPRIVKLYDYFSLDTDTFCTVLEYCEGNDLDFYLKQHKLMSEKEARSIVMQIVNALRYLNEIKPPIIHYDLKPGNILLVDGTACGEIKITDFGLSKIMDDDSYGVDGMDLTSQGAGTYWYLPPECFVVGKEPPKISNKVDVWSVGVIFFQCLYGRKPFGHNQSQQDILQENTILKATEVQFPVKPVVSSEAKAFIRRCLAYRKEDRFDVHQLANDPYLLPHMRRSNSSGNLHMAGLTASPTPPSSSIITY

[28] = target: Serine/threonine-protein kinase 32C (Homo sapiens) (UniProt Q86UX6); conditions: Compound concentration 1000.0 nM
[29] = target: Mitogen-activated protein kinase kinase kinase 14 (Homo sapiens) (UniProt Q99558); conditions: Compound concentration 1000.0 nM
[30] = target: STE20/SPS1-related proline-alanine-rich protein kinase (Homo sapiens) (UniProt Q9UEW8); conditions: Compound concentration 1000.0 nM
[31] = target: Mitogen-activated protein kinase 14 (Homo sapiens) (UniProt Q16539); conditions: Compound concentration 1000.0 nM
[32] = target: Serine/threonine-protein kinase pim-1 (Homo sapiens) (UniProt P11309); conditions: Compound concentration 1000.0 nM
[33] = target: Megakaryocyte-associated tyrosine-protein kinase (Homo sapiens) (UniProt P42679); conditions: Compound concentration 1000.0 nM
[34] = test system: Phosphatidylinositol 4,5-bisphosphate 3-kinase catalytic subunit alpha isoform (Homo sapiens), P42336 [M1043I]; conditions: Compound concentration 1000.0 nM
[35] = target: Serine/threonine-protein kinase Nek3 (Homo sapiens) (UniProt P51956); conditions: Compound concentration 1000.0 nM
[36] = target: Phosphatidylinositol 4,5-bisphosphate 3-kinase catalytic subunit alpha isoform (Homo sapiens) (UniProt P42336); conditions: Compound concentration 1000.0 nM
[37] = target: Serine/threonine-protein kinase WNK4 (Homo sapiens) (UniProt Q96J92); conditions: Compound concentration 1000.0 nM
[38] = target: Mitogen-activated protein kinase 15 (Homo sapiens) (UniProt Q8TD08); conditions: Compound concentration 1000.0 nM
[39] = target: Serine/threonine-protein kinase SIK1 (Homo sapiens) (UniProt P57059); conditions: Compound concentration 1000.0 nM
[40] = target: Ephrin type-A receptor 4 (Homo sapiens) (UniProt P54764); conditions: Compound concentration 1000.0 nM
[41] = target: Serine/threonine-protein kinase WNK2 (Homo sapiens) (UniProt Q9Y3S1); conditions: Compound concentration 1000.0 nM
[42] = target: GABA-A receptor; anion channel (Rattus norvegicus) (UniProt O09028+P15431+P18506+P18508+P19969+P20236+P23574+P23576+P28471+P28473+P30191+P62813+P63079+P63138+Q91ZM7+Q9ES14); conditions: Compound concentration 10.0 uM
[43] = target: Serine/threonine-protein kinase 32B (Homo sapiens) (UniProt Q9NY57); conditions: Compound concentration 1000.0 nM

Tyrosine-protein kinase ABL1 (Homo sapiens), P00519 [F317L], sequence (P00519 whole entry F317L): as the sequence (P00519 whole entry F317I) above, with I317L counted along it

Cc1nccc(COC(=O)N2C[C@@H]3[C@@H](CNC(=O)c4ccc5[nH]nnc5c4)[C@@H]3C2)n1 [BI 3017]
inactive: residual activity [1] 70% | residual activity [2] 97% | residual activity [3] 100% | residual activity [4] 100% | residual activity [5] 84% | residual activity [6] 82% | inhibition [7] 31.1% | residual activity [8] 82% | residual activity [9] 97% | residual activity [10] 99% | residual activity [11] 100% | residual activity [12] 100% | residual activity [13] 100% | residual activity [14] 97% | residual activity [15] 71% | residual activity [16] 92% | residual activity [17] 92% | residual activity [18] 80% | residual activity [19] 100% | residual activity [20] 81% | residual activity [21] 69% | residual activity [22] 100% | residual activity [23] 89% | residual activity [24] 100% | residual activity [25] 100% | residual activity [26] 100% | residual activity [27] 87% | residual activity [28] 95% | residual activity [29] 66% | residual activity [30] 79% | residual activity [31] 100% | residual activity [32] 96% | residual activity [33] 94% | residual activity [34] 100% | residual activity [35] 100% | residual activity [36] 92% | residual activity [37] 100% | residual activity [38] 100% | residual activity [39] 98% | residual activity [40] 98% | residual activity [41] 79% | inhibition [42] 14.2% | residual activity [43] 97%

O=C(NC[C@@H]1[C@H]2CN(C(=O)OCc3cc(C(F)(F)F)cc(C(F)(F)F)c3)C[C@@H]12)c1ccc2[nH]nnc2c1 [BI 2545]
inactive: residual activity [1] 91% | residual activity [2] 100% | residual activity [3] 91% | residual activity [4] 97% | residual activity [5] 90% | residual activity [6] 99% | inhibition [7] 41.5% | residual activity [8] 99% | residual activity [9] 89% | residual activity [10] 96% | residual activity [11] 73% | residual activity [12] 100% | residual activity [13] 100% | residual activity [14] 94% | residual activity [15] 89% | residual activity [16] 79% | residual activity [17] 100% | residual activity [18] 100% | residual activity [19] 83% | residual activity [20] 88% | residual activity [21] 82% | residual activity [22] 91% | residual activity [23] 89% | residual activity [24] 85% | residual activity [25] 72% | residual activity [26] 97% | residual activity [27] 68% | residual activity [28] 90% | residual activity [29] 77% | residual activity [30] 80% | residual activity [31] 100% | residual activity [32] 98% | residual activity [33] 100% | residual activity [34] 95% | residual activity [35] 100% | residual activity [36] 74% | residual activity [37] 89% | residual activity [38] 100% | residual activity [39] 100% | residual activity [40] 82% | residual activity [41] 84% | inhibition [42] -4.02% | residual activity [43] 100%
